US20030073236A1, “p193 proteins and nucleic acids, and uses thereof” (priority 1999, published 2003)

What was measured:
[1] = tested on: ES-derived cardiomyocytes; assay: Isoproterenol effect on growth of ES-derived cardiomyocytes co-expressing p193dn and p53dn; type: cell-based; conditions: cells with MHC-p193dn and MHC-p53dn, isoproterenol 1 μM mg/ml for 58 days, vs. absence
Excerpt: It follows then that if the p193 and p53 pathways are blocked, hypertrophic stimuli might result in direct cell cycle activity. To test this, undifferentiated ES cells were transfected with the MHC-neor/pGK-hygror transgene in combination with both the MHC-p193dn and MHC-p53dn transgenes. Transfected cells were enriched by virtue of their resistance to hygromycin, and then induced to differentiate. The ES-derived cardiomyocytes were then enriched by virtue of their resistance to G418. Cardiomyocyte growth was then compared in these cultures in the presence vs. absence of exogenous isoproterenol (1 μM mg/ml) for 58 days.

SV40 T-Ag = target: T1, SV40 T-Ag (Simian virus 40, UniProt P03070); assay: p193/T-Ag binding by immune precipitation; conditions: radiolabeled in vitro translated p193 mixed with recombinant T-Ag
T1 construct: construct designated CMV-T-Ag; expressed in transfected cells; host or cells: NIH-3T3
T1 sequence (Q8VE73 whole entry): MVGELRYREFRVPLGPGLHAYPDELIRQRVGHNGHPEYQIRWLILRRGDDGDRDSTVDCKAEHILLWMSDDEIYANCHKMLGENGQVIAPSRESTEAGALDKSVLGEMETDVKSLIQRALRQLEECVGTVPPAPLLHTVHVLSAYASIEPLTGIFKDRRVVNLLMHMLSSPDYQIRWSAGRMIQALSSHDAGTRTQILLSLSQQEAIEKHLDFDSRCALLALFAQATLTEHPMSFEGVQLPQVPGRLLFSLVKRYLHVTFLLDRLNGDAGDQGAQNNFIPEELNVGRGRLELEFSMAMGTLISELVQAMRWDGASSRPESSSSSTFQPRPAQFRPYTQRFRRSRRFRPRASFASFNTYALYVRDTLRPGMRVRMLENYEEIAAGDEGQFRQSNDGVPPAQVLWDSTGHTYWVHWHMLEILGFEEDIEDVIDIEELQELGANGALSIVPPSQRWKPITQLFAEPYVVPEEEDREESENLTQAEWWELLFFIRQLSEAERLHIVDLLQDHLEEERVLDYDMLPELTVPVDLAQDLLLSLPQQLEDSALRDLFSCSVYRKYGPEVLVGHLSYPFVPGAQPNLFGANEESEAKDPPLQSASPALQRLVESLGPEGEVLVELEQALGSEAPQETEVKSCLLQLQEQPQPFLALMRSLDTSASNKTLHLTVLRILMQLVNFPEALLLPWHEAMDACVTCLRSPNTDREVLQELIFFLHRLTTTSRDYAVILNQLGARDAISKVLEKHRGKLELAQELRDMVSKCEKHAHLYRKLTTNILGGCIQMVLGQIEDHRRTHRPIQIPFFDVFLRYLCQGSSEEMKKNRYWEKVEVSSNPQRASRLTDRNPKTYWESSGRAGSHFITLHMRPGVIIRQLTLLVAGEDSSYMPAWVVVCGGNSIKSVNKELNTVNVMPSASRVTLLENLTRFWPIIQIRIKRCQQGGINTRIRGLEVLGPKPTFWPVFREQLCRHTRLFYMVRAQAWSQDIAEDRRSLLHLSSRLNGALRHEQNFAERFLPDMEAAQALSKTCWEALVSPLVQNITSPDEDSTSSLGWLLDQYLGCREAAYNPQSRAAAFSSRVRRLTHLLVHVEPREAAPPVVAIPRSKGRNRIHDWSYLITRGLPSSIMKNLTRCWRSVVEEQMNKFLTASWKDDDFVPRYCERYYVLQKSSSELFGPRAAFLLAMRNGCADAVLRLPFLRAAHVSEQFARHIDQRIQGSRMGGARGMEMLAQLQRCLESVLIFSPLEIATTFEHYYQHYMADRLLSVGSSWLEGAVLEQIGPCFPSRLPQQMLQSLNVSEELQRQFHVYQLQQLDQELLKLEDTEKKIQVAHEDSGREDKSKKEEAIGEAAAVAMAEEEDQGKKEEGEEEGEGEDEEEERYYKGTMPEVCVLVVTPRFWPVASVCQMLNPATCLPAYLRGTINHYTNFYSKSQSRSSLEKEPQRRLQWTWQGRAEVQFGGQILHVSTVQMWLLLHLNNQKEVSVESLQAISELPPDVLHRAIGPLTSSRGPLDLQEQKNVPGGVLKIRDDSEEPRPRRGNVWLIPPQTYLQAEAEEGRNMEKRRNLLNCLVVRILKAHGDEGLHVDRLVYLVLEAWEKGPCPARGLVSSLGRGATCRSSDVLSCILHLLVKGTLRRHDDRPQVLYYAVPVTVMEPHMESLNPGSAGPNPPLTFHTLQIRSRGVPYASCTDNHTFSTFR
T1 sequence (P03070 whole entry): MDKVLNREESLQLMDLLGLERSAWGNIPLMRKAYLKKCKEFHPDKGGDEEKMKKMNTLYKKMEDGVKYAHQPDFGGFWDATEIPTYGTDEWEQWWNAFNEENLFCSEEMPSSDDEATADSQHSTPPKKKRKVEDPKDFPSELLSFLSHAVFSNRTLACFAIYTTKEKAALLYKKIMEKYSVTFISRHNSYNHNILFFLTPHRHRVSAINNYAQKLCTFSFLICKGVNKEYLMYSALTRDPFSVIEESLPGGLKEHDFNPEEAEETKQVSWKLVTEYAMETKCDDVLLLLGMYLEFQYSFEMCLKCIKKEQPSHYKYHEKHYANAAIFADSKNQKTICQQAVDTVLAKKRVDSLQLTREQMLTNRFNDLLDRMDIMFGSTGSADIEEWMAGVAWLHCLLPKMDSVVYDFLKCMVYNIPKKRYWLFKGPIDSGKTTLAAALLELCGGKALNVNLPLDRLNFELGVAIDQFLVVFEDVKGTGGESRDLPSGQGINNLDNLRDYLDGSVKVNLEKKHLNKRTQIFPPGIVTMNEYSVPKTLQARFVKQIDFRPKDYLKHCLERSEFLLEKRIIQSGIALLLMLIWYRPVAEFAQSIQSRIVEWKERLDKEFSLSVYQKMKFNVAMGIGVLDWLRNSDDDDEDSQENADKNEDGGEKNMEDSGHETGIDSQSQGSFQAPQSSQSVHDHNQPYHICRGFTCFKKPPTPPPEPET
Description: A T-Ag cDNA was subcloned into pcDNA3.1 expression vector (which lacks the epitope tag; construct designated CMV-T-Ag). For IP/Western analyses, NIH-3T3 cells (ATCC, Rockville Md.) were co-transfected with […] and CMV-p193myc using the calcium phosphate approach (Sambrook, J., Fritsch, E. F., and Maniatis, T. (1989) Molecular cloning, Cold Spring Harbor Laboratory Press, Cold Spring Harbor, N.Y.). Protein (1 mg) prepared from the transfected cells was reacted with an anti-T-Ag (PAb419), an anti-myc (9E10, Santa Cruz Biotech.), or an IgG subtype-matched non-specific antibody (anti-GST, Pharmacia), and the resulting immune complexes were subjected to Western blot analysis. 100 μg of total protein from non-transfected and transfected cells were included as controls. The blots were probed with an anti-myc (9E10) or anti-T-Ag (PAb416) antibody, and signal was developed using the ECL method. […] Immune complex was then visualized via autoradiography (p193) or Western blotting (T-Ag) as described above.

Compound: CC(C)NCC(O)c1ccc(O)c(O)c1 (centres unmarked) [isoproterenol]
- cardiomyocyte colony size [1]: Markedly enhanced cardiomyocyte colony size

Compound: p193: apoptosis associated, T-Ag binding protein of 1689 amino acid residues (mouse, SEQ. I.D. NO. 2); here in vitro translated
- binding of in vitro translated protein to recombinant T-Ag (IP) (SV40 T-Ag): present in immune complex generated with anti-T-Ag antibody
